ChEMBL document CHEMBL3797031, “Structure-activity relationship study of 4-substituted piperidines at Leu26 moiety of novel p53-hDM2 inhibitors” (Bioorg Med Chem Lett, 2016)

Assays:
[1] = target: T1, E3 ubiquitin-protein ligase Mdm2 (Homo sapiens, UniProt Q00987); assay: Binding affinity to human MDM2 assessed as inhibition of interaction with p53 by fluorescence polarization assay
[2] = Antiproliferative activity against human HCT116 cells expressing wild type p53; type: functional, cell-based; conditions: HCT-116
[3] = target: Cytochrome P450 2C9 (Homo sapiens, UniProt P11712); assay: Inhibition of CYP2C9 (unknown origin); type: ADME
[4] = Antiproliferative activity against p53 null human HCT116 cells; type: functional, cell-based; conditions: HCT-116
[5] = test system: SK-UT-1; assay: Antiproliferative activity against human SK-UT-1 cells expressing mutant p53; type: functional, cell-based
[6] = target: Cytochrome P450 2D6 (Homo sapiens, UniProt P10635); assay: Inhibition of CYP2D6 (unknown origin); type: ADME
[7] = target: Cytochrome P450 3A4 (Homo sapiens, UniProt P08684); assay: Inhibition of CYP3A4 (unknown origin); type: ADME
[8] = Antiproliferative activity against human SJSA1 cells expressing wild type p53; type: functional, cell-based; conditions: SJSA-1
[9] = target: T1, E3 ubiquitin-protein ligase Mdm2; assay: Binding affinity to human MDM2 by temperature dependent fluorescence assay

T1 sequence (Q00987 whole entry): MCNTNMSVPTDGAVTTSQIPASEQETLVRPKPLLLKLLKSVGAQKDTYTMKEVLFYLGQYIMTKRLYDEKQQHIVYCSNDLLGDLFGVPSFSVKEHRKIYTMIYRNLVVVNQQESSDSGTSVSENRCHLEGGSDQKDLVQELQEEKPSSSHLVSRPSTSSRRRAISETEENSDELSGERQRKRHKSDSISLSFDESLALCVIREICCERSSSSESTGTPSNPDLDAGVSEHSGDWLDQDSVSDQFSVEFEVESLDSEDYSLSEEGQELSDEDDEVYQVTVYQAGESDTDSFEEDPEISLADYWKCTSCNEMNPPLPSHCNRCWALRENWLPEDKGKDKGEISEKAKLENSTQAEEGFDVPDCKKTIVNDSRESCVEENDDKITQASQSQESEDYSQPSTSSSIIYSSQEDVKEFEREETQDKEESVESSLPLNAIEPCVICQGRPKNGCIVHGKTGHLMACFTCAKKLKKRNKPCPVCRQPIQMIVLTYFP
Sequence of Cytochrome P450 3A4 (P08684 whole entry): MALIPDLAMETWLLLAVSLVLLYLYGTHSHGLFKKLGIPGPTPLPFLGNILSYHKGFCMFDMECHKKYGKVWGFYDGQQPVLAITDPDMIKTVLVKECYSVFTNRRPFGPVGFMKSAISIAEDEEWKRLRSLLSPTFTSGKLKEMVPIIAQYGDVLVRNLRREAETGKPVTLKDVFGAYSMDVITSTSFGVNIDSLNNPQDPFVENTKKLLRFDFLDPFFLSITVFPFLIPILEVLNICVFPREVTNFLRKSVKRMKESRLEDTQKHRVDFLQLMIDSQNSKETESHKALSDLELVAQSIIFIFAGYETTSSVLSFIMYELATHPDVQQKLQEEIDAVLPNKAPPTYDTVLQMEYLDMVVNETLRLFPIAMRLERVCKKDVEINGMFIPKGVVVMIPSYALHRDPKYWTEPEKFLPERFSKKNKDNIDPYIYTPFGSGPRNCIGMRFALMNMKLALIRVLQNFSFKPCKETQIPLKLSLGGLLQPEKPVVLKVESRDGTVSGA
Sequence of Cytochrome P450 2D6 (P10635 whole entry): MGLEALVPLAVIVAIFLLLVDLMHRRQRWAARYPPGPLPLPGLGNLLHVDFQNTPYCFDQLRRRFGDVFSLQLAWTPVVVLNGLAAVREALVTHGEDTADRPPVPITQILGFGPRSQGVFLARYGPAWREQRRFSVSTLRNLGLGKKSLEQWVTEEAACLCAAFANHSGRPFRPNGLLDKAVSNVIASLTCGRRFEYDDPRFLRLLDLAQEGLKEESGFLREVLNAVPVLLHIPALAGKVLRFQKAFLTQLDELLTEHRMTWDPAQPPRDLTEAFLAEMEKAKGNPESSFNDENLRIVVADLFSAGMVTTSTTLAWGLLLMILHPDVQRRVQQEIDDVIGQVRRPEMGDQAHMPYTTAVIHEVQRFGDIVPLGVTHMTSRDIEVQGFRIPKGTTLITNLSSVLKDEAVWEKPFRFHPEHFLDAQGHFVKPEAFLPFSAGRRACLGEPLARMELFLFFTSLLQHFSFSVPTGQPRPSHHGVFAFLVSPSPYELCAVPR
Sequence of Cytochrome P450 2C9 (P11712 whole entry): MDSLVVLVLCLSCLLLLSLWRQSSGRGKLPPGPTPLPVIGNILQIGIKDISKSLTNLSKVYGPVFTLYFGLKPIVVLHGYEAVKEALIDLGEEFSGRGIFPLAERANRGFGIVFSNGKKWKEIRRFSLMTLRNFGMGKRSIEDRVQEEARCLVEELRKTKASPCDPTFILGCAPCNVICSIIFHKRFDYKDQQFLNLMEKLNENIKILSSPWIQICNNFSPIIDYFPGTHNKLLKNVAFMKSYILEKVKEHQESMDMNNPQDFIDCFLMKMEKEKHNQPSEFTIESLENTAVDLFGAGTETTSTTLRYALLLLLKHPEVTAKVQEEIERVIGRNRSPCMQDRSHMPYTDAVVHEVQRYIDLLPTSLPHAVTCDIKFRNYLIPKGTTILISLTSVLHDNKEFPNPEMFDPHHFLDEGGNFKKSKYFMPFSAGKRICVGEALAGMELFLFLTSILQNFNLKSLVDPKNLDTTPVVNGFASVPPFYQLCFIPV

Compound | IC50 [1] [nM] | further results
CCC[C@H]1N(C(=O)c2cnccc2C(F)(F)F)CCC[C@@]1(Oc1ccc(C(F)(F)F)cc1)C(=O)N1CCC(Sc2ccccc2)CC1 | 1980 | 
CCC[C@H]1N(C(=O)c2cnccc2C(F)(F)F)CCC[C@@]1(Oc1ccc(C(F)(F)F)cc1)C(=O)N1CCC(Oc2ccc(Cl)cc2)CC1 | 4110 | 
CCC[C@H]1N(C(=O)c2cnccc2C(F)(F)F)CCC[C@@]1(Oc1ccc(C(F)(F)F)cc1)C(=O)N1CCC(Oc2cc(CN)ccn2)CC1 | 4030 | 
CCC[C@H]1N(C(=O)c2cnccc2C(F)(F)F)CCC[C@@]1(Oc1ccc(C(F)(F)F)cc1)C(=O)N1CCC(Oc2ccccc2Cl)CC1 | 2760 | 
CCC[C@H]1N(C(=O)c2cnccc2C(F)(F)F)CCC[C@@]1(Oc1ccc(C(F)(F)F)cc1)C(=O)N1CCC(Oc2cccc(C)c2)CC1 | 668 | 
CCC[C@H]1N(C(=O)c2cnccc2C(F)(F)F)CCC[C@@]1(Oc1ccc(C(F)(F)F)cc1)C(=O)N1CCC(Oc2ccc(C)cc2)CC1 | 8770 | 
O=C(c1cnccc1C(F)(F)F)N1CCCC(Oc2ccc(C(F)(F)F)cc2)(C(=O)N2CCN(c3ccccn3)CC2)C1 (centres undefined) |  | Kd [9]: 500 nM
CCC[C@H]1N(C(=O)c2cnccc2C(F)(F)F)CCC[C@@]1(Oc1ccc(C(F)(F)F)cc1)C(=O)N1CCC(Oc2ccccc2C)CC1 | 6600 | 
CCC[C@H]1N(C(=O)c2cnccc2C(F)(F)F)CCC[C@@]1(Oc1ccc(C(F)(F)F)cc1)C(=O)N1CCC(Oc2ccc(C#N)cc2)CC1 | 1920 | 
CCC[C@H]1N(C(=O)c2cnccc2C(F)(F)F)CCC[C@@]1(Oc1ccc(C(F)(F)F)cc1)C(=O)N1CCC(Oc2cccc(C#N)n2)CC1 | 686 | 
CCC[C@H]1N(C(=O)c2cnccc2C(F)(F)F)CCC[C@@]1(Oc1ccc(C(F)(F)F)cc1)C(=O)N1CCC(Oc2cccc(C(F)(F)F)n2)CC1 | 2040 | 
CCC[C@H]1N(C(=O)c2cnccc2C(F)(F)F)CCC[C@@]1(Oc1ccc(C(F)(F)F)cc1)C(=O)N1CCC(Oc2cccc(Cl)n2)CC1 | 2360 | 
CCC[C@H]1N(C(=O)c2cnccc2C(F)(F)F)CCC[C@@]1(Oc1ccc(C(F)(F)F)cc1)C(=O)N1CCC(Oc2ncccc2C(N)=O)CC1 | 4280 | 
CCC[C@H]1N(C(=O)c2cnccc2C(F)(F)F)CCC[C@@]1(Oc1ccc(C(F)(F)F)cc1)C(=O)N1CCC(Oc2ccc(C#N)cn2)CC1 | 492 | 
CCC[C@H]1N(C(=O)c2cnccc2C(F)(F)F)CCC[C@@]1(Oc1ccc(C(F)(F)F)cc1)C(=O)N1CCC(Cc2ccccc2)CC1 | 5830 | 
CCC[C@H]1N(C(=O)c2cnccc2C(F)(F)F)CCC[C@@]1(Oc1ccc(C(F)(F)F)cc1)C(=O)N1CCC(Oc2cncnc2)CC1 | 525 | 
CCC[C@H]1N(C(=O)c2cnccc2C(F)(F)F)CCC[C@@]1(Oc1ccc(C(F)(F)F)cc1)C(=O)N1CCC(Cc2ccc(C)cc2)CC1 | 25800 | 
CCC[C@H]1N(C(=O)c2cnccc2C(F)(F)F)CCC[C@@]1(Oc1ccc(C(F)(F)F)cc1)C(=O)N1CCC(Oc2cnccn2)CC1 | 1060 | 
CCC[C@H]1N(C(=O)c2cnccc2C(F)(F)F)CCC[C@@]1(Oc1ccc(C(F)(F)F)cc1)C(=O)N1CCC(Oc2cccc(C)n2)CC1 | 5030 | 
CCC[C@H]1N(C(=O)c2cnccc2C(F)(F)F)CCC[C@@]1(Oc1ccc(C(F)(F)F)cc1)C(=O)N1CCC(Oc2cccc(Cl)c2)CC1 | 2100 | 
CCC[C@H]1N(C(=O)c2cnccc2C(F)(F)F)CCC[C@@]1(Oc1ccc(C(F)(F)F)cc1)C(=O)N1CCC(Sc2ccc(C)cc2)CC1 | 9360 | 
CCC[C@H]1N(C(=O)c2cnccc2C(F)(F)F)CCC[C@@]1(Oc1ccc(C(F)(F)F)cc1)C(=O)N1CCC(Oc2cc(C(N)=O)ccn2)CC1 | 8720 | 
CCC[C@H]1N(C(=O)c2cnccc2C(F)(F)F)CCC[C@@]1(Oc1ccc(C(F)(F)F)cc1)C(=O)N1CCC(Oc2cccc(OC)n2)CC1 | 1150 | 
CCC[C@H]1N(C(=O)c2cnccc2C(F)(F)F)CCC[C@@]1(Oc1ccc(C(F)(F)F)cc1)C(=O)N1CCC(Oc2ccccc2)CC1 | 2400 | 
CCC[C@H]1N(C(=O)c2cnccc2C(F)(F)F)CCC[C@@]1(Oc1ccc(C(F)(F)F)cc1)C(=O)N1CCC(Oc2ccc(CN)cn2)CC1 | 801 | 
CCC[C@H]1N(C(=O)c2cnccc2C(F)(F)F)CCC[C@@]1(Oc1ccc(C(F)(F)F)cc1)C(=O)N1CCC(Oc2cccc(Br)n2)CC1 | 1860 | 
CCC[C@H]1N(C(=O)c2cnccc2C(F)(F)F)CCC[C@@]1(Oc1ccc(C(F)(F)F)cc1)C(=O)N1CCC(Oc2ccccc2C#N)CC1 | 8710 | 
CCC[C@H]1N(C(=O)c2cnccc2C(F)(F)F)CCC[C@@]1(Oc1ccc(C(F)(F)F)cc1)C(=O)N1CCC(Oc2ncccc2C#N)CC1 | 2400 | 
CCC[C@H]1N(C(=O)c2cnccc2C(F)(F)F)CCC[C@@]1(Oc1ccc(C(F)(F)F)cc1)C(=O)N1CCC(Oc2ncccc2CN)CC1 | 7740 | 

Continued, in another order:

IC50 [1] [nM] | Compound | further results
42 | CCC[C@H]1N(C(=O)c2cnccc2C(F)(F)F)CCC[C@@]1(Oc1ccc(C(F)(F)F)cc1)C(=O)N1CCC(Oc2cccc(C(=O)O)n2)CC1 | IC50 [2]: 8650 nM; IC50 [3]: > 50000 nM; IC50 [4]: > 100000 nM; IC50 [5]: > 100000 nM; IC50 [6]: > 50000 nM; IC50 [7]: > 50000 nM; IC50 [8]: 4650 nM
399 | CCC[C@H]1N(C(=O)c2cnccc2C(F)(F)F)CCC[C@@]1(Oc1ccc(C(F)(F)F)cc1)C(=O)N1CCC(Oc2cccc(C#N)c2)CC1 | 
376 | CCC[C@H]1N(C(=O)c2cnccc2C(F)(F)F)CCC[C@@]1(Oc1ccc(C(F)(F)F)cc1)C(=O)N1CCC(Oc2ccncn2)CC1 | 
267 | CCC[C@H]1N(C(=O)c2cnccc2C(F)(F)F)CCC[C@@]1(Oc1ccc(C(F)(F)F)cc1)C(=O)N1CCC(Oc2cccnc2)CC1 | 
144 | CCC[C@H]1N(C(=O)c2cnccc2C(F)(F)F)CCC[C@@]1(Oc1ccc(C(F)(F)F)cc1)C(=O)N1CCC(Oc2ccc(C(N)=O)cn2)CC1 | 
150 | CCC[C@H]1N(C(=O)c2cnccc2C(F)(F)F)CCC[C@@]1(Oc1ccc(C(F)(F)F)cc1)C(=O)N1CCC(Oc2ccccn2)CC1 | 
114 | CCC[C@H]1N(C(=O)c2cnccc2C(F)(F)F)CCC[C@@]1(Oc1ccc(C(F)(F)F)cc1)C(=O)N1CCC(Oc2cccc(C(=O)NC)n2)CC1 | 
392 | CCC[C@H]1N(C(=O)c2cnccc2C(F)(F)F)CCC[C@@]1(Oc1ccc(C(F)(F)F)cc1)C(=O)N1CCC(Oc2cccc(C(=O)OC)n2)CC1 | 
334 | CCC[C@H]1N(C(=O)c2cnccc2C(F)(F)F)CCC[C@@]1(Oc1ccc(C(F)(F)F)cc1)C(=O)N1CCC(Oc2ncccn2)CC1 | 
293 | CCC[C@H]1N(C(=O)c2cnccc2C(F)(F)F)CCC[C@@]1(Oc1ccc(C(F)(F)F)cc1)C(=O)N1CCC(Oc2cc(C#N)ccn2)CC1 | 
111 | CCC[C@H]1N(C(=O)c2cnccc2C(F)(F)F)CCC[C@@]1(Oc1ccc(C(F)(F)F)cc1)C(=O)N1CCC(Oc2cccc(C(N)=O)n2)CC1 | 
173 | CCC[C@H]1N(C(=O)c2cnccc2C(F)(F)F)CCC[C@@]1(Oc1ccc(C(F)(F)F)cc1)C(=O)N1CCC(Oc2cccc(CN)n2)CC1 | 
224 | CCC[C@H]1N(C(=O)c2cnccc2C(F)(F)F)CCC[C@@]1(Oc1ccc(C(F)(F)F)cc1)C(=O)N1CCC(Oc2ccncc2)CC1 | 
